Source: patent EP4635500A1, “THERAPEUTIC AGENT FOR BACTERIAL INFECTION” (Sumitomo Pharma Co., Ltd., priority 2022, dated 2024)
Values after ≈ are worked out from the molar mass of the structure shown.

Assays:
Prevotella spp. = test: MIC, agar dilution, anaerobic bacteria (Example 9, Tables 18, 23); assay type: cell-based; settings: for MIC: (n)=Compound A µg/mL, 0=Compound A alone antibacterial
Porphyromonas spp. = test: MIC, agar dilution, anaerobic bacteria (Example 9, Tables 19, 24); assay type: cell-based; settings: for MIC: (n)=Compound A µg/mL, 0=Compound A alone antibacterial

## Cc1ncc([N+](=O)[O-])n1CCO [Metronidazole]
Prevotella spp.; KUB No. 2989 Prevotella histicola
  MIC: 0.5 µg/mL (≈ 2.92 µM)
Prevotella spp.; KUB No. 2991 Prevotella intermedia
  MIC: 0.5 µg/mL (≈ 2.92 µM)
Prevotella spp.; KUB No. 2992 Prevotella buccae
  MIC: 1 µg/mL (≈ 5.84 µM)
Prevotella spp.; KUB No. 3005 Prevotella melaninogenica
  MIC: 1 µg/mL (≈ 5.84 µM)
Prevotella spp.; KUB No. 6558 Prevotella heparinolytica
  MIC: 0.25 µg/mL (≈ 1.46 µM)
Prevotella spp.; KUB No. 6559 Prevotella intermedia
  MIC: 2 µg/mL (≈ 11.7 µM)
Prevotella spp.; KUB No. 6560 Prevotella nigrescens
  MIC: 0.5 µg/mL (≈ 2.92 µM)
Prevotella spp.; KUB No. 6561 Prevotella melaninogenica
  MIC: 1 µg/mL (≈ 5.84 µM)
Prevotella spp.; KUB No. 6563 Prevotella nigrescens
  MIC: 0.5 µg/mL (≈ 2.92 µM)
Prevotella spp.; KUB No. 6564 Prevotella buccae
  MIC: 2 µg/mL (≈ 11.7 µM)
Prevotella spp.; KUB No. 6565 Prevotella nigrescens
  MIC: 0.5 µg/mL (≈ 2.92 µM)
Prevotella spp.; KUB No. 6567 Prevotella melaninogenica
  MIC: 0.5 µg/mL (≈ 2.92 µM)
Prevotella spp.; KUB No. 6568 Prevotella intermedia
  MIC: 1 µg/mL (≈ 5.84 µM)
Prevotella spp.; KUB No. 6569 Prevotella nanceiensis
  MIC: 2 µg/mL (≈ 11.7 µM)
Prevotella spp.; KUB No. 6570 Prevotella intermedia
  MIC: 2 µg/mL (≈ 11.7 µM)
Prevotella spp.; KUB No. 6571 Prevotella denticola
  MIC: 0.25 µg/mL (≈ 1.46 µM)
Prevotella spp.; KUB No. 6572 Prevotella melaninogenica
  MIC: 0.5 µg/mL (≈ 2.92 µM)
Prevotella spp.; KUB No. 6574 Prevotella oris
  MIC: 0.5 µg/mL (≈ 2.92 µM)
Prevotella spp.; KUB No. 6575 Prevotella nigrescens
  MIC: 1 µg/mL (≈ 5.84 µM)
Prevotella spp.; KUB No. 6576 Prevotella intermedia
  MIC: 0.25 µg/mL (≈ 1.46 µM)
Prevotella spp.; KUB No. 6579 Prevotella pallens
  MIC: 0.5 µg/mL (≈ 2.92 µM)
Prevotella spp.; KUB No. 6581 Prevotella intermedia
  MIC: 2 µg/mL (≈ 11.7 µM)
Prevotella spp.; KUB No. 6582 Prevotella melaninogenica
  MIC: 0.5 µg/mL (≈ 2.92 µM)
Prevotella spp.; KUB No. 6585 Prevotella baroniae
  MIC: 1 µg/mL (≈ 5.84 µM)
Prevotella spp.; KUB No. 6587 Prevotella melaninogenica
  MIC: ≤ 0.12 µg/mL
Prevotella spp.; KUB No. 6588 Prevotella nigrescens
  MIC: 0.5 µg/mL (≈ 2.92 µM)
Prevotella spp.; KUB No. 6589 Prevotella buccae
  MIC: 0.5 µg/mL (≈ 2.92 µM)
Prevotella spp.; KUB No. 6590 Prevotella buccae
  MIC: 0.5 µg/mL (≈ 2.92 µM)
Prevotella spp.; KUB No. 6591 Prevotella intermedia
  MIC: 0.5 µg/mL (≈ 2.92 µM)
Prevotella spp.; KUB No. 6592 Prevotella jejuni
  MIC: 0.5 µg/mL (≈ 2.92 µM)
Prevotella spp.; KUB No. 6600 Prevotella intermedia
  MIC: 0.5 µg/mL (≈ 2.92 µM)
Prevotella spp.; KUB No. 6601 Prevotella melaninogenica
  MIC: 0.5 µg/mL (≈ 2.92 µM)
Prevotella spp.; KUB No. 6603 Prevotella melaninogenica
  MIC: 0.25 µg/mL (≈ 1.46 µM)
Prevotella spp.; KUB No. 6609 Prevotella buccae
  MIC: 0.5 µg/mL (≈ 2.92 µM)
Prevotella spp.; KUB No. 6611 Prevotella nigrescens
  MIC: 1 µg/mL (≈ 5.84 µM)
Prevotella spp.; KUB No. 6612 Prevotella oris
  MIC: 0.5 µg/mL (≈ 2.92 µM)
Prevotella spp.; KUB No. 6613 Prevotella buccae
  MIC: 0.5 µg/mL (≈ 2.92 µM)
Prevotella spp.; KUB No. 6614 Prevotella intermedia
  MIC: 1 µg/mL (≈ 5.84 µM)
Prevotella spp.; KUB No. 6615 Prevotella buccae
  MIC: 1 µg/mL (≈ 5.84 µM)
Prevotella spp.; KUB No. 6617 Prevotella buccae
  MIC: 2 µg/mL (≈ 11.7 µM)
Prevotella spp.; KUB No. 6618 Prevotella melaninogenica
  MIC: 0.25 µg/mL (≈ 1.46 µM)
Prevotella spp.; KUB No. 6622 Prevotella loescheii
  MIC: 1 µg/mL (≈ 5.84 µM)
Prevotella spp.; KUB No. 6623 Prevotella nigrescens
  MIC: 1 µg/mL (≈ 5.84 µM)
Prevotella spp.; KUB No. 6625 Prevotella melaninogenica
  MIC: 0.5 µg/mL (≈ 2.92 µM)
Prevotella spp.; KUB No. 6626 Prevotella loescheii
  MIC: 1 µg/mL (≈ 5.84 µM)
Prevotella spp.; KUB No. 6629 Prevotella bivia
  MIC: 8 µg/mL (≈ 46.7 µM)
Prevotella spp.; KUB No. 6630 Prevotella nigrescens
  MIC: 0.5 µg/mL (≈ 2.92 µM)
Prevotella spp.; KUB No. 6631 Prevotella jejuni
  MIC: 0.5 µg/mL (≈ 2.92 µM)
Prevotella spp.; Prevotella spp.
  MICrange: ≤0.12 to 8 µg/mL
Prevotella spp.; Prevotella spp., read-out: MIC50
  MIC50: 0.5 µg/mL (≈ 2.92 µM)
Prevotella spp.; Prevotella spp., read-out: MIC90
  MIC90: 2 µg/mL (≈ 11.7 µM)
Prevotella spp.; Prevotella, KUB No. 6583 Prevotella nonceiensis
  MIC: 2 µg/mL (≈ 11.7 µM)
Prevotella spp.; Prevotella, KUB No. 6604 Prevotella nonceiensis
  MIC: 1 µg/mL (≈ 5.84 µM)
Prevotella spp.; po, KUB No. 6566 Prevotella oralis
  MIC: 0.25 µg/mL (≈ 1.46 µM)
Porphyromonas spp.; KUB No. 6663 Porphyromonas gingivalis
  MIC: ≤ 0.12 µg/mL
Porphyromonas spp.; KUB No. 6666 Porphyromonas gingivalis
  MIC: ≤ 0.12 µg/mL
Porphyromonas spp.; KUB No. 6667 Porphyromonas gingivalis
  MIC: ≤ 0.12 µg/mL
Porphyromonas spp.; KUB No. 6668 Porphyromonas gingivalis
  MIC: ≤ 0.12 µg/mL
Porphyromonas spp.; KUB No. 6669 Porphyromonas gingivalis
  MIC: ≤ 0.12 µg/mL
Porphyromonas spp.; KUB No. 6670 Porphyromonas gingivalis
  MIC: ≤ 0.12 µg/mL
Porphyromonas spp.; KUB No. 6671 Porphyromonas gingivalis
  MIC: ≤ 0.12 µg/mL
Porphyromonas spp.; KUB No. 6672 Porphyromonas gingivalis
  MIC: ≤ 0.12 µg/mL
Porphyromonas spp.; KUB No. 6673 Porphyromonas gingivalis
  MIC: ≤ 0.12 µg/mL
Porphyromonas spp.; KUB No. 6674 Porphyromonas gingivalis
  MIC: ≤ 0.12 µg/mL
Porphyromonas spp.; KUB No. 6676 Porphyromonas gingivalis
  MIC: ≤ 0.12 µg/mL
Porphyromonas spp.; KUB No. 6677 Porphyromonas gingivalis
  MIC: ≤ 0.12 µg/mL
Porphyromonas spp.; KUB No. 6678 Porphyromonas gingivalis
  MIC: ≤ 0.12 µg/mL
Porphyromonas spp.; KUB No. 6679 Porphyromonas gingivalis
  MIC: ≤ 0.12 µg/mL
Porphyromonas spp.; KUB No. 6680 Porphyromonas gingivalis
  MIC: ≤ 0.12 µg/mL
Porphyromonas spp.; KUB No. 6681 Porphyromonas gingivalis
  MIC: ≤ 0.12 µg/mL
Porphyromonas spp.; KUB No. 6682 Porphyromonas gingivalis
  MIC: ≤ 0.12 µg/mL
Porphyromonas spp.; KUB No. 6683 Porphyromonas gingivalis
  MIC: ≤ 0.12 µg/mL
Porphyromonas spp.; KUB No. 6684 Porphyromonas gingivalis
  MIC: ≤ 0.12 µg/mL
Porphyromonas spp.; KUB No. 6685 Porphyromonas gingivalis
  MIC: ≤ 0.12 µg/mL
Porphyromonas spp.; KUB No. 6686 Porphyromonas gingivalis
  MIC: ≤ 0.12 µg/mL
Porphyromonas spp.; KUB No. 6687 Porphyromonas gingivalis
  MIC: ≤ 0.12 µg/mL
Porphyromonas spp.; KUB No. 6688 Porphyromonas gingivalis
  MIC: ≤ 0.12 µg/mL
Porphyromonas spp.; Porphyromonas, KUB No. 6665 Porphyromonas assaccharolytica
  MIC: ≤ 0.12 µg/mL
Porphyromonas spp.; Porphyromonas, table at the place of Table 24, Prevotella spp., read-out: MIC50
  MIC50: ≤ 0.12 µg/mL
Porphyromonas spp.; Porphyromonas, table at the place of Table 24, Prevotella spp., read-out: MIC90
  MIC90: ≤ 0.12 µg/mL
Porphyromonas spp.; table at the place of Table 24, Prevotella spp.
  MICrange: ≤0.12 µg/mL
